According to patent US12084451B2, “Compositions and methods for reducing tactile dysfunction, anxiety, and social impairment” (President and Fellows of Harvard College, priority 2018, dated 2024):

Tested on: rodent models of neuropathic pain
Assay: rodent models of neuropathic pain
Format: in vivo
Description: The utility of peripherally-restricted GABAA receptor PAMs, agonists are not limited to treatment of the above indications; the compounds disclosed herein are also useful for treating touch over-reactivity and pain associated with other disease states, including Sensory Processing Disorder (SPD) and fibromyalgia, as well as mechanical allodynia associated with nerve injury, shingles, diabetic neuropathy, chemotherapy-induced neuropathy and other neuropathic pain states.

In the case of `O=C(O)C1=CCNCC1` [Isoguvacine], the “effect on tactile over-reactivity (mechanical allodynia)” value is reported as “reduces tactile over-reactivity (mechanical allodynia)”.
